Literature values in patent US20070203026A1, “Methods for controlling bermudagrass, bermudagrass hybrids and other weedy monocot and dicot species” (TurfEcosystems, LLC, priority 2006, published 2007).

Columns and labels:
[1] = system: fairway crested wheatgrass; details: saturated soil paste extract data
perennial ryegrass = details: saturated soil paste extract data
seashore paspalum = details: ocean level chlorides
crested wheatgrass = details: saturated soil paste extract data
tall fescue = details: saturated soil paste extract data
bermudagrass = details: saturated soil paste extract data

## Cl [chloride]
[1]
  maximum soil chloride concentration threshold: about 2625 ppm
Perennial ryegrass
  maximum soil chloride concentration threshold: about 1025 ppm
Seashore paspalum
  chlorides withstood (salinity tolerance): ~19,000 ppm
Crested wheatgrass
  maximum soil chloride concentration threshold: about 1050 ppm
Tall fescue
  maximum soil chloride concentration threshold: about 1400 ppm
bermudagrass
  maximum soil chloride concentration threshold: about 2450 ppm
